# Legend:
# Format in all cases: in vivo
# corn (Zea mays) = assay: Test A postemergence
# From the text: (§1) Seeds of plant species selected from barnyardgrass (Echinochloa crus-galli), Kochia (Kochia scoparia), ragweed (common ragweed, Ambrosia elatior), ryegrass, Italian (Italian ryegrass, Lolium multiflorum), crabgrass, large (Digitaria sanguinalis), giant foxtail (Setaria faberii), green foxtail (Setaria viridis), morningglory (Ipomoea spp.), pigweed (Amaranthus retroflexus), velvetleaf (Abutilon theophrasti), wheat (Triticum aestivum), and corn (Zea mays) were planted into a blend of loam soil and sand and treated preemergence with a directed soil spray using test chemicals formulated in anon-phytotoxic solvent mixture which included a surfactant.
# (§2) At the same time, plants selected from these crop and weed species and also blackgrass (Alopecurus myosuroides), and Galium (catchweed bedstraw, Galium aparine) were planted in pots containing the same blend of loam soil and sand and treated with postemergence applications of test chemicals formulated in the same manner. Plants ranged in height from 2 to 10 cm and were in the one- to two-leaf stage for the postemergence treatment. Treated plants and untreated controls were maintained in a greenhouse for approximately 10 d, after which time all treated plants were compared to untreated controls and visually evaluated for injury. Plant response ratings, summarized in Table A, are based on a 0 to 100 scale where 0 is no effect and 100 is complete control. A dash (-) response means no test result.
# [1] = test system: ragweed (common ragweed, Ambrosia elatior); assay: Test A postemergence
# From the text: as §1, §2
# Kochia (Kochia scoparia) [2] = assay: Test A postemergence
# From the text: as §1, §2
# [3] = test system: ryegrass, Italian (Italian ryegrass, Lolium multiflorum); assay: Test A postemergence
# From the text: as §1, §2
# [4] = test system: Galium (catchweed bedstraw, Galium aparine); assay: Test A postemergence
# From the text: as §1, §2
# [5] = test system: pigweed (Amaranthus retroflexus); assay: Test A postemergence
# From the text: as §1, §2
# [6] = test system: blackgrass (Alopecurus myosuroides); assay: Test A postemergence
# From the text: as §1, §2
# [7] = test system: wheat (Triticum aestivum); assay: Test A postemergence
# From the text: as §1, §2
# [8] = test system: barnyardgrass (Echinochloa crus-galli); assay: Test A postemergence
# From the text: as §1, §2
# [9] = test system: giant foxtail (Setaria faberii); assay: Test A postemergence
# From the text: as §1, §2
# [10] = test system: ragweed (common ragweed, Ambrosia elatior); assay: Test A preemergence
# From the text: as §1, §2
# Kochia (Kochia scoparia) [11] = assay: Test A preemergence
# From the text: as §1, §2
# [12] = test system: ryegrass, Italian (Italian ryegrass, Lolium multiflorum); assay: Test A preemergence
# From the text: as §1, §2
# [13] = test system: pigweed (Amaranthus retroflexus); assay: Test A preemergence
# From the text: as §1, §2
# [14] = test system: barnyardgrass (Echinochloa crus-galli); assay: Test A preemergence
# From the text: as §1, §2
# [15] = test system: giant foxtail (Setaria faberii); assay: Test A preemergence
# From the text: as §1, §2
# [16] = 125 g ai/ha, postemergence, visual rating after approx. 10 d, 0 to 100 scale (0 no effect, 100 complete control)
# [17] = Postemergence, 500 g ai/ha, 0 to 100 scale where 0 is no effect and 100 is complete control
# [18] = 125 g ai/ha, Preemergence, visual injury after approximately 10 d, 0 to 100 scale where 0 is no effect and 100 is complete control
# [19] = Preemergence, 500 g ai/ha, visual injury approx. 10 d
structure (smiles),measurement,setting,value
O=C1NC[C@H](c2ccc3sccc3c2)[C@H]1C(=O)Nc1cccc(F)c1F [Compound 1128],plant injury at 500 g/ha,"corn (Zea mays); Zea mays, post-emergence, 240 h, 500 g ai/ha, postemergence, 0 to 100 scale, 0 is no effect, 100 is complete control, read-out: Corn plant response rating",50%
same,pest or weed control at 500 g/ha,"[1]; Ambrosia artemisiifolia, post-emergence, 240 h, 500 g ai/ha, postemergence, 0 to 100 scale, 0 is no effect, 100 is complete control, read-out: Ragweed plant response rating",50%
same,pest or weed control at 500 g/ha,"Kochia (Kochia scoparia) [2]; Bassia scoparia, post-emergence, 240 h, 500 g ai/ha, postemergence, 0 to 100 scale, 0 is no effect, 100 is complete control, read-out: Kochia plant response rating",70%
same,pest or weed control at 500 g/ha,"[3]; Lolium multiflorum, post-emergence, 240 h, 500 g ai/ha, postemergence, 0 to 100 scale, 0 is no effect, 100 is complete control, read-out: Ryegrass, Italian plant response rating",30%
same,pest or weed control at 500 g/ha,"[4]; Galium, post-emergence, 240 h, 500 g ai/ha, postemergence, 0 to 100 scale, 0 is no effect, 100 is complete control, read-out: Galium plant response rating",70%
same,pest or weed control at 500 g/ha,"[5]; Amaranthus retroflexus, post-emergence, 240 h, 500 g ai/ha, postemergence, 0 to 100 scale, 0 is no effect, 100 is complete control, read-out: Pigweed plant response rating",0%
same,pest or weed control at 500 g/ha,"[6]; Alopecurus myosuroides, post-emergence, 240 h, 500 g ai/ha, postemergence, 0 to 100 scale, 0 is no effect, 100 is complete control, read-out: Blackgrass plant response rating",50%
same,plant injury at 500 g/ha,"[7]; Triticum aestivum, post-emergence, 240 h, 500 g ai/ha, postemergence, 0 to 100 scale, 0 is no effect, 100 is complete control, read-out: Wheat plant response rating",0%
same,pest or weed control at 500 g/ha,"[8]; Echinochloa crus-galli, post-emergence, 240 h, 500 g ai/ha, postemergence, 0 to 100 scale, 0 is no effect, 100 is complete control, read-out: Barnyardgrass plant response rating",90%
same,pest or weed control at 500 g/ha,"[9]; Setaria faberi, post-emergence, 240 h, 500 g ai/ha, postemergence, 0 to 100 scale, 0 is no effect, 100 is complete control, read-out: Foxtail, Giant plant response rating",90%
same,pest or weed control at 500 g/ha,"[10]; Ambrosia artemisiifolia, pre-emergence, 240 h, 500 g ai/ha, preemergence, 0 to 100 scale where 0 is no effect and 100 is complete control, read-out: Ragweed plant response rating",50%
same,pest or weed control at 500 g/ha,"Kochia (Kochia scoparia) [11]; Bassia scoparia, pre-emergence, 240 h, 500 g ai/ha, preemergence, 0 to 100 scale where 0 is no effect and 100 is complete control, read-out: Kochia plant response rating",80%
same,pest or weed control at 500 g/ha,"[12]; Lolium multiflorum, pre-emergence, 240 h, 500 g ai/ha, preemergence, 0 to 100 scale where 0 is no effect and 100 is complete control, read-out: Ryegrass, Italian plant response rating",40%
same,pest or weed control at 500 g/ha,"[13]; Amaranthus retroflexus, pre-emergence, 240 h, 500 g ai/ha, preemergence, 0 to 100 scale where 0 is no effect and 100 is complete control, read-out: Pigweed plant response rating",0%
same,pest or weed control at 500 g/ha,"[14]; Echinochloa crus-galli, pre-emergence, 240 h, 500 g ai/ha, preemergence, 0 to 100 scale where 0 is no effect and 100 is complete control, read-out: Barnyardgrass plant response rating",90%
same,pest or weed control at 500 g/ha,"[15]; Setaria faberi, pre-emergence, 240 h, 500 g ai/ha, preemergence, 0 to 100 scale where 0 is no effect and 100 is complete control, read-out: Foxtail, Giant plant response rating",90%
Cc1cc(F)ccc1NC(=O)C1C(=O)N(C)CC1c1cccc(C(F)(F)F)c1 (stereo not drawn) [Compound 575],"Plant response rating, Corn",corn (Zea mays); [16],70
same,"Plant response rating, Corn",corn (Zea mays); [17],80
same,"Plant response rating, Ragweed",[1]; [16],0
same,"Plant response rating, Ragweed",[1]; [17],0
same,"Plant response rating, Kochia",Kochia (Kochia scoparia) [2]; [16],0
same,"Plant response rating, Kochia",Kochia (Kochia scoparia) [2]; [17],20
same,"Plant response rating, Ryegrass, Italian",[3]; [16],60
same,"Plant response rating, Ryegrass, Italian",[3]; [17],70
same,"Plant response rating, Galium",[4]; [16],50
same,"Plant response rating, Galium",[4]; [17],70
same,"Plant response rating, Pigweed",[5]; [16],0
same,"Plant response rating, Pigweed",[5]; [17],20
same,"Plant response rating, Blackgrass",[6]; [16],70
same,"Plant response rating, Blackgrass",[6]; [17],80
same,"Plant response rating, Wheat",[7]; [16],40
same,"Plant response rating, Wheat",[7]; [17],70
same,"Plant response rating, Barnyardgrass",[8]; [16],90
same,"Plant response rating, Barnyardgrass",[8]; [17],90
same,"Plant response rating, Foxtail, Giant",[9]; [16],90
same,"Plant response rating, Foxtail, Giant",[9]; [17],90
same,"Plant response rating, Ragweed",[10]; [18],0
same,"Ragweed plant response rating (0 to 100 scale, 0 is no effect, 100 is complete control)",[10]; [19],0
same,"Plant response rating, Kochia",Kochia (Kochia scoparia) [11]; [18],0
same,"Kochia plant response rating (0 to 100 scale, 0 is no effect, 100 is complete control)",Kochia (Kochia scoparia) [11]; [19],70
same,"Plant response rating, Ryegrass, Italian",[12]; [18],60
same,"Ryegrass, Italian plant response rating (0 to 100 scale, 0 is no effect, 100 is complete control)",[12]; [19],80
same,"Plant response rating, Pigweed",[13]; [18],0
same,"Pigweed plant response rating (0 to 100 scale, 0 is no effect, 100 is complete control)",[13]; [19],40
same,"Plant response rating, Barnyardgrass",[14]; [18],90
same,"Barnyardgrass plant response rating (0 to 100 scale, 0 is no effect, 100 is complete control)",[14]; [19],100
same,"Plant response rating, Foxtail, Giant",[15]; [18],90
same,"Foxtail, Giant plant response rating (0 to 100 scale, 0 is no effect, 100 is complete control)",[15]; [19],100

# — patent US12077503B2, “Substituted cyclic amides and their use as herbicides” (FMC CORPORATION, priority 2015, dated 2024)
